Measured values reported in PubChem BioAssay AID248 (DTP/NCI, 2004).
Values joined by “and” are separate entries in the source; they are usually repeats but may differ in a detail not shown here. Equal entries are not always repeated. Inconclusive results and toxic doses are left out. Cut-off read from the data, not from the text of the source: active = T/C of 150% or more; inactive = T/C below 125%.

System: L1210 leukemia ip in BDF1 mice, survival T/C
Assay: NCI In Vivo Anticancer Drug Screen. Data for tumor model L1210 Leukemia (intraperitoneal) in B6D2F1 (BDF1) mice
Settings: endpoint: mean survival time, higher = longer survival
Procedure, shortened: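 Tumor cells were implanted, animals were treated, and survival was followed. The result divides the treated measurement by the vehicle-control measurement.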

[1] = dose: 100.0 mg/kg/injection, schedule: Q01DX009 (ip), vehicle: Klucel (hydroxypropylcellulose) (HPC)
[2] = dose: 200.0 mg/kg/injection, schedule: Q01DX009 (ip), vehicle: Klucel (hydroxypropylcellulose) (HPC)
[3] = dose: 100.0 mg/kg/injection, schedule: Q01DX009 (ip), vehicle: saline with Tween-80
[4] = dose: 100.0 mg/kg/injection, schedule: Q01DX001 (ip), vehicle: carboxymethylcellulose (CMC)
[5] = dose: 200.0 mg/kg/injection, schedule: Q01DX001 (ip), vehicle: carboxymethylcellulose (CMC)
[6] = dose: 400.0 mg/kg/injection, schedule: Q01DX001 (ip), vehicle: carboxymethylcellulose (CMC)
[7] = dose: 100.0 mg/kg/injection, schedule: Q04DX002 (ip), vehicle: saline with Tween-80
[8] = dose: 200.0 mg/kg/injection, schedule: Q04DX002 (ip), vehicle: saline with Tween-80
[9] = dose: 12.5 mg/kg/injection, schedule: Q01DX009 (ip), vehicle: saline with Tween-80
[10] = dose: 25.0 mg/kg/injection, schedule: Q01DX009 (ip), vehicle: saline with Tween-80
[11] = dose: 100.0 mg/kg/injection, schedule: Q04DX003 (ip), vehicle: Klucel (hydroxypropylcellulose) (HPC)
[12] = dose: 200.0 mg/kg/injection, schedule: Q04DX003 (ip), vehicle: Klucel (hydroxypropylcellulose) (HPC)
[13] = dose: 400.0 mg/kg/injection, schedule: Q04DX003 (ip), vehicle: Klucel (hydroxypropylcellulose) (HPC)

Measured: T/C

NS(=O)(=O)c1ccc(NC(=O)Nc2ccc(Cl)cc2[N+](=O)[O-])cc1
inactive: [1] 94 % of control | [2] 91 % of control | dose: 400.0 mg/kg/injection, schedule: Q01DX009 (ip), vehicle: Klucel (hydroxypropylcellulose) (HPC) 86 % of control

CC(=O)Nc1ccccc1C(=O)O
inactive: [3] 100 % of control | dose: 200.0 mg/kg/injection, schedule: Q01DX009 (ip), vehicle: saline with Tween-80 97 % of control | dose: 400.0 mg/kg/injection, schedule: Q01DX009 (ip), vehicle: saline with Tween-80 100 % of control

N=C(N)Sc1cccc[n+]1[O-]
inactive: dose: 100.0 mg/kg/injection, schedule: Q01DX001 (ip), vehicle: saline 105 % of control | dose: 200.0 mg/kg/injection, schedule: Q01DX001 (ip), vehicle: saline 111 % of control

Cc1cc(Cl)ccc1OCC(=O)Oc1c(Cl)c(Cl)c(Cl)c(Cl)c1Cl
inactive: dose: 100.0 mg/kg/injection, schedule: Q04DX002 (ip), vehicle: Klucel (hydroxypropylcellulose) (HPC) 93 % of control | dose: 200.0 mg/kg/injection, schedule: Q04DX002 (ip), vehicle: Klucel (hydroxypropylcellulose) (HPC) 112 % of control

NC(=O)N/N=C/Cc1ccc2c(c1)OCO2
inactive: [4] 97 % of control | [5] 87 % of control | [6] 92 % of control

Cc1ccc(S(=O)(=O)N(CC(=O)O)c2c[nH]c(C(=O)O)c2)cc1
inactive: dose: 100.0 mg/kg/injection, schedule: Q01DX009 (ip), vehicle: acetone 92 % of control | dose: 200.0 mg/kg/injection, schedule: Q01DX009 (ip), vehicle: acetone 95 % of control | dose: 400.0 mg/kg/injection, schedule: Q01DX009 (ip), vehicle: acetone 88 % of control

O=S(=O)(Nc1ccccn1)c1ccc(N(CCCl)CCCl)cc1
inactive: dose: 100.0 mg/kg/injection, schedule: Q01DX001 (ip), vehicle: other 95 % of control | dose: 200.0 mg/kg/injection, schedule: Q01DX001 (ip), vehicle: other 103 % of control | dose: 400.0 mg/kg/injection, schedule: Q01DX001 (ip), vehicle: other 106 % of control

COC(=O)c1cc(OC)cc(OC)c1C(=O)c1c(OC)c(Cl)c(C)c(Cl)c1OC
inactive: dose: 50.0 mg/kg/injection, schedule: Q04DX002 (ip), vehicle: saline with Tween-80 110 % of control | [7] 95 % of control | [8] 100 % of control

O=C1CCC(=O)N1Nc1ccccc1
inactive: dose: 50.0 mg/kg/injection, schedule: Q01DX001 (ip), vehicle: carboxymethylcellulose (CMC) 104 % of control | [4] 96 % of control | [5] 102 % of control | [6] 98 % of control

COc1ccc(OC)c(NC(=O)c2cccc([N+](=O)[O-])c2)c1
inactive: [4] 94 % of control | [5] 100 % of control | [6] 94 % of control

CCCCC(=O)N/N=C\c1cc(Cl)cc(Cl)c1
inactive: [4] 100 % of control | [5] 93 % of control | [6] 96 % of control

CC(=O)OC1C(C)OC(OC2C=C3CCC4C(CCC5(C)C(c6ccc(=O)oc6)CCC45O)C3(C)CC2)C(OC(C)=O)C1OC(C)=O (stereo not given)
inactive: dose: 6.25 mg/kg/injection, schedule: Q01DX009 (ip), vehicle: saline with Tween-80 102 % of control | [9] 100 % of control | dose: 12.5 mg/kg/injection, schedule: Q04DX003 (ip), vehicle: saline with Tween-80 105 % of control | [10] 103 % of control | dose: 25.0 mg/kg/injection, schedule: Q04DX003 (ip), vehicle: saline with Tween-80 105 % of control

C#CC(C)(C)NC(=O)NC(C)(C)C
inactive: dose: 100.0 mg/kg/injection, schedule: Q04DX002 (ip), vehicle: gum acacia 112 % of control | dose: 200.0 mg/kg/injection, schedule: Q04DX002 (ip), vehicle: gum acacia 91 % of control | dose: 400.0 mg/kg/injection, schedule: Q04DX002 (ip), vehicle: gum acacia 102 % of control

CCCCN(CCCC)CCCNC(=O)OCC
inactive: dose: 25.0 mg/kg/injection, schedule: Q01DX009 (ip), vehicle: Klucel (hydroxypropylcellulose) (HPC) 92 % of control | dose: 50.0 mg/kg/injection, schedule: Q01DX009 (ip), vehicle: Klucel (hydroxypropylcellulose) (HPC) 94 % of control | dose: 50.0 mg/kg/injection, schedule: Q04DX003 (ip), vehicle: Klucel (hydroxypropylcellulose) (HPC) 100 % of control | [1] 106 % of control and 87 % of control | [11] 103 % of control

Cc1ccccc1NC(=O)Nc1cccc(C)c1C
inactive: [1] 87 % of control | [11] 98 % of control | [2] 95 % of control | [12] 93 % of control | [13] 94 % of control

CC(=O)OC1CCC2(C)C(CCC3C4CCC(=O)OC4(C)CC(=O)C32)C1 (stereo not given)
inactive: dose: 100.0 mg/kg/injection, schedule: Q04DX003 (sc), vehicle: steriod suspending solution 104 % of control | dose: 200.0 mg/kg/injection, schedule: Q04DX003 (sc), vehicle: steriod suspending solution 100 % of control | dose: 400.0 mg/kg/injection, schedule: Q04DX003 (sc), vehicle: steriod suspending solution 97 % of control

O=C(COc1ccc(Cl)c(Cl)c1)Nc1ccc[n+](Cc2ccc(S(=O)(=O)F)cc2Cl)c1
inactive: [3] 94 % of control

O=C(CCCc1ccc(N(CCCl)CCCl)cc1)NCc1ccc(N(CCCl)CCCl)cc1
inactive: dose: 4.0 mg/kg/injection, schedule: Q12HX018 (sc), vehicle: other 103 % of control | dose: 6.0 mg/kg/injection, schedule: Q12HX018 (sc), vehicle: other 103 % of control | dose: 8.0 mg/kg/injection, schedule: Q12HX018 (sc), vehicle: other 100 % of control

C1CN2CCC1C1(C2)SSC2(CN3CCC2CC3)S1 (stereo not given)
inactive: dose: 6.25 mg/kg/injection, schedule: Q01DX009 (ip), vehicle: saline 107 % of control | dose: 6.25 mg/kg/injection, schedule: Q04DX003 (ip), vehicle: saline 96 % of control | dose: 12.5 mg/kg/injection, schedule: Q01DX009 (ip), vehicle: saline 96 % of control | dose: 12.5 mg/kg/injection, schedule: Q04DX003 (ip), vehicle: saline 107 % of control | dose: 25.0 mg/kg/injection, schedule: Q01DX009 (ip), vehicle: saline 119 % of control | dose: 25.0 mg/kg/injection, schedule: Q04DX003 (ip), vehicle: saline 94 % of control

COc1ccc(C(O)c2nnc(-c3ccccc3)nn2)cc1 (stereo not given)
inactive: dose: 100.0 mg/kg/injection, schedule: Q01DX001 (ip), vehicle: gum acacia 90 % of control | dose: 200.0 mg/kg/injection, schedule: Q01DX001 (ip), vehicle: gum acacia 120 % of control | dose: 400.0 mg/kg/injection, schedule: Q01DX001 (ip), vehicle: gum acacia 107 % of control

CCN(CC)Cc1cc(Nc2cc(C)nc(/N=C(\N)Nc3cc(Cl)cc(Cl)c3)n2)ccc1O
inactive: dose: 100.0 mg/kg/injection, schedule: Q04DX003 (ip), vehicle: saline with Tween-80 98 % of control

O=CC(O)C(O)C(Cl)C(O)CCl (stereo not given)
inactive: [7] 90 % of control | [8] 97 % of control | dose: 400.0 mg/kg/injection, schedule: Q04DX002 (ip), vehicle: saline with Tween-80 93 % of control

CCCC(=O)N1C(C)CCC1C (stereo not given)
inactive: [7] 103 % of control | [8] 95 % of control

NP(=O)(OCCCOCc1ccccc1)N(CCCl)CCCl (stereo not given)
inactive: dose: 125.0 mg/kg/injection, schedule: Q01DX001 (ip), vehicle: saline 103 % of control | dose: 250.0 mg/kg/injection, schedule: Q01DX001 (ip), vehicle: saline 108 % of control | dose: 500.0 mg/kg/injection, schedule: Q01DX001 (ip), vehicle: saline 100 % of control

O=[N+]([O-])c1sc2ccccc2c1O
inactive: [9] 99 % of control | [10] 99 % of control

C[CH2][Ge]([CH2]C)[O][Ge]([CH2]C)[CH2]C.C[CH2][Ge]([CH2]C)[O][Ge]([CH2]C)[CH2]C
inactive: dose: 5.0 mg/kg/injection, schedule: Q04DX002 (ip), vehicle: saline with Tween-80 96 % of control | dose: 10.0 mg/kg/injection, schedule: Q04DX002 (ip), vehicle: saline with Tween-80 96 % of control | dose: 20.0 mg/kg/injection, schedule: Q04DX002 (ip), vehicle: saline with Tween-80 100 % of control

C=CCN1C2C=C(c3ccccc3)CC1CCC2 (stereo not given)
inactive: dose: 12.5 mg/kg/injection, schedule: Q04DX003 (ip), vehicle: Klucel (hydroxypropylcellulose) (HPC) 100 % of control | dose: 25.0 mg/kg/injection, schedule: Q04DX003 (ip), vehicle: Klucel (hydroxypropylcellulose) (HPC) 96 % of control

Nc1nc2nc(N=Nc3ccc(S(=O)(=O)O)cc3)[nH]c2c(=O)[nH]1
inactive: [11] 93 % of control | [12] 93 % of control | [13] 93 % of control
